Target: T1, human RORγ-LBD (Homo sapiens, UniProt P51449)
T1 construct: made in house; host or cells: E. coli (BL-21)
T1 sequence (P51449 262-518): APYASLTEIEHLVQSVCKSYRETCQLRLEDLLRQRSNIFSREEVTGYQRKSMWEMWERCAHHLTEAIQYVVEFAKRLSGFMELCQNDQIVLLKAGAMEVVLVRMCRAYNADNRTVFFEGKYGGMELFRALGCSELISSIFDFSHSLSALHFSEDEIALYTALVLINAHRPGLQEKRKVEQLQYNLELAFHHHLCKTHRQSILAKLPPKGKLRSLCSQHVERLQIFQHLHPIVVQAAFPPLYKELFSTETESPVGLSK
Experiment: ROR gamma coactivator peptide recruitment Alphascreen assay (RORγ-LBD binding to GRIP1 coactivator peptide)
Format: biochemical
Conditions: 5 nM human RORγ-LBD, 30 nM 7-β-hydroxycholesterol, 50 nM biotinylated GRIP1 coactivator peptide, overnight incubation at room temperature; read-out: result (pIC50, RORγ coactivator peptide recruitment Alphascreen assay) (converted)
How it was run: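 His/Flag-tagged human RORγ-LBD (aa 262-518, E. coli-expressed, 5 nM) with agonist 7-β-hydroxycholesterol (30 nM) and biotinylated GRIP1 LXXLL peptide (50 nM) in HEPES pH 7.4 buffer, 2.5% DMSO. Compound 1-in-2 dilutions; Alphascreen bead signal read after overnight incubation at room temperature; pIC50 calculated.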

| Structure (SMILES) | IC50 [nM] |
| --- | --- |
| CC1(CN(CC(=O)c2c(Cl)cncc2Cl)C(=O)c2cnn([C@H]3CC[C@](C)(C(=O)O)CC3)c2C(F)(F)F)CC(F)(F)C1 [Example 863, trans-4-(4-((2-(3,5-dichloro-4-pyridinyl)-2-oxoethyl)((3,3-difluoro-1-methylcyclobutyl)methyl)carbamoyl)-5-(trifluoromethyl)-1H-pyrazol-1-yl)-1-methylcyclohexanecarboxylic acid] | 6.46 |
| CC1(C)CC(CN(CC(=O)c2c(F)cccc2Cl)C(=O)c2cnn([C@H]3CC[C@](C)(C(=O)O)CC3)c2C(F)(F)F)C1 [Example 595, trans-4-(4-((2-(2-chloro-6-fluorophenyl)-2-oxoethyl)((3,3-dimethylcyclobutyl)methyl)carbamoyl)-5-(trifluoromethyl)-1H-pyrazol-1-yl)-1-methylcyclohexanecarboxylic acid] | 5.62 |
| CC(C)CCN(CC(=O)c1c(Cl)cccc1Cl)C(=O)c1cnn([C@H]2CC[C@H](C(=O)O)[C@H](C)C2)c1C(F)(F)F [Example 804, (1S,2R,4S)-4-(4-((2-(2,6-dichlorophenyl)-2-oxoethyl)(3-methylbutyl)carbamoyl)-5-(trifluoromethyl)-1H-pyrazol-1-yl)-2-methylcyclohexanecarboxylic acid] | 53.7 |
| CC1(C)C[C@@H](CN(CC(=O)c2c(Cl)cccc2Cl)C(=O)c2cnn([C@H]3CC[C@](C)(C(=O)O)CC3)c2C(F)(F)F)O1 [Example 629, trans-4-(4-((2-(2,6-dichlorophenyl)-2-oxoethyl)(((2S)-4,4-dimethyl-2-oxetanyl)methyl)carbamoyl)-5-(trifluoromethyl)-1H-pyrazol-1-yl)-1-methylcyclohexanecarboxylic acid] | 45.7 |
| Cc1cc(Cl)c(C(=O)CN(Cc2cc(F)cc(F)c2)C(=O)c2cnn([C@H]3CC[C@@H](C(=O)O)CC3)c2C(F)(F)F)c(Cl)n1 [Example 761, cis-4-(4-((2-(2,4-dichloro-6-methyl-3-pyridinyl)-2-oxoethyl)(3,5-difluorobenzyl)carbamoyl)-5-(trifluoromethyl)-1H-pyrazol-1-yl)cyclohexanecarboxylic acid] | 7.94 |
| Cc1cc(Cl)c(C(=O)CN(CC2(C)CCC2)C(=O)c2cnn([C@H]3CC[C@](C)(C(=O)O)CC3)c2C(F)(F)F)c(Cl)c1 [Example 731, trans-4-(4-((2-(2,6-dichloro-4-methylphenyl)-2-oxoethyl)((1-methylcyclobutyl)methyl)carbamoyl)-5-(trifluoromethyl)-1H-pyrazol-1-yl)-1-methylcyclohexanecarboxylic acid] | 0.933 |
| CCC(CC)(CC)CN(CC(=O)c1c(Cl)cncc1Cl)C(=O)c1cnn([C@H]2CC[C@](C)(C(=O)O)CC2)c1C(F)(F)F [Example 644, trans-4-(4-((2-(3,5-dichloro-4-pyridinyl)-2-oxoethyl)(2,2-diethylbutyl)carbamoyl)-5-(trifluoromethyl)-1H-pyrazol-1-yl)-1-methylcyclohexanecarboxylic acid] | 3.98 |
| CC1(C)CC[C@H](CN(CC(=O)c2c(Cl)cccc2Cl)C(=O)c2cnn([C@H]3CC[C@](C)(C(=O)O)CC3)c2C(F)(F)F)O1 [Example 839, trans-4-(4-((2-(2,6-dichlorophenyl)-2-oxoethyl)(((2S)-5,5-dimethyltetrahydro-2-furanyl)methyl)carbamoyl)-5-(trifluoromethyl)-1H-pyrazol-1-yl)-1-methylcyclohexanecarboxylic acid] | 7.24 |
| CC(C)(C)CN(CCc1c(Cl)c[nH]c(=O)c1Cl)C(=O)c1cnn([C@H]2CC[C@](C)(C(=O)O)CC2)c1C(F)(F)F [Example 885, trans-4-(4-((2-(3,5-dichloro-2-oxo-1,2-dihydro-4-pyridinyl)ethyl)(2,2-dimethylpropyl)carbamoyl)-5-(trifluoromethyl)-1H-pyrazol-1-yl)-1-methylcyclohexanecarboxylic acid] | 741 |
| C[C@]1(C(=O)O)CC[C@H](n2ncc(C(=O)N(CC(=O)c3c(Cl)cncc3Cl)CC3CC3)c2C(F)(F)F)CC1 [Example 710, trans-4-(4-((cyclopropylmethyl) (2-(3,5-dichloro-4-pyridinyl)-2-oxoethyl)carbamoyl)-5-(trifluoromethyl)-1H-pyrazol-1-yl)-1-methylcyclohexanecarboxylic acid] | 27.5 |
| COc1ncc(Cl)c(CCN(CC(C)(C)C)C(=O)c2cnn([C@H]3CC[C@H](C(=O)O)[C@H](C)C3)c2C(F)(F)F)c1Cl [Example 887, (1S,2R,4S)-4-(4-((2-(3,5-dichloro-2-methoxy-4-pyridinyl)ethyl)(2,2-dimethylpropyl)carbamoyl)-5-(trifluoromethyl)-1H-pyrazol-1-yl)-2-methylcyclohexanecarboxylic acid] | 16.2 |
| C[C@@H]1C[C@@H](n2ncc(C(=O)N(CC(=O)c3c(Cl)cncc3Cl)CC3CC(C)(C)C3)c2C(F)(F)F)CC[C@@H]1C(=O)O [Example 756, (1S,2R,4S)-4-(4-((2-(3,5-dichloro-4-pyridinyl)-2-oxoethyl)((3,3-dimethylcyclobutyl)methyl)carbamoyl)-5-(trifluoromethyl)-1H-pyrazol-1-yl)-2-methylcyclohexanecarboxylic acid] | 2.57 |
| C[C@]1(C(=O)O)CC[C@H](n2ncc(C(=O)N(CC(=O)c3c(Cl)cccc3Cl)[C@H]3CCC34CCCC4)c2C(F)(F)F)CC1 [Example 626] | 2.82 |
| Cc1cc(Cl)c(C(=O)CN(CC2(C)CCCC2)C(=O)c2cnn([C@H]3CC[C@](C)(C(=O)O)CC3)c2C(F)(F)F)c(Cl)c1 [Example 709, trans-4-(4-((2-(2,6-dichloro-4-methylphenyl)-2-oxoethyl)((1-methylcyclopentyl)methyl)carbamoyl)-5-(trifluoromethyl)-1H-pyrazol-1-yl)-1-methylcyclohexanecarboxylic acid] | 0.891 |
| CC(C)(C)CN(CC(=O)c1c(Cl)cncc1Cl)C(=O)c1cnn([C@H]2CC[C@](C)(C(=O)O)C[C@H]2F)c1C(F)(F)F [Example 868, (1S,3R,4S)-4-(4-((2-(3,5-dichloro-4-pyridinyl)-2-oxoethyl)(2,2-dimethylpropyl)carbamoyl)-5-(trifluoromethyl)-1H-pyrazol-1-yl)-3-fluoro-1-methylcyclohexanecarboxylic acid] | 4.57 |
| CC(C)CCN(CC(=O)c1c(Cl)cncc1Cl)C(=O)c1cnn([C@H]2C[C@@H]3[C@H](C2)[C@@H]3C(=O)O)c1C(F)(F)F [Example 765, (1R,3r,5S,6r)-3-(4-((2-(3,5-dichloro-4-pyridinyl)-2-oxoethyl)(3-methylbutyl)carbamoyl)-5-(trifluoromethyl)-1H-pyrazol-1-yl)bicyclo[3.1.0]hexane-6-carboxylic acid] | 245 |
| C[C@]1(CC(=O)O)CC[C@H](n2ncc(C(=O)N(CC(=O)c3c(Cl)cncc3Cl)Cc3cc(F)cc(F)c3)c2C(F)(F)F)CC1 [Example 789, (trans-4-(4-((2-(3,5-dichloro-4-pyridinyl)-2-oxoethyl)(3,5-difluorobenzyl)carbamoyl)-5-(trifluoromethyl)-1H-pyrazol-1-yl)-1-methylcyclohexyl)acetic acid] | 2.09 |
| Cc1cc(Cl)c(C(=O)CN(CC(C)(C)C)C(=O)c2cnn([C@H]3CC[C@](C)(C(=O)O)CC3)c2C(F)(F)F)c(Cl)c1 [Example 568, trans-4-(4-((2-(2,6-dichloro-4-methylphenyl)-2-oxoethyl)(2,2-dimethylpropyl)carbamoyl)-5-(trifluoromethyl)-1H-pyrazol-1-yl)-1-methylcyclohexanecarboxylic acid] | 3.39 |
| Cc1cc(F)c(C(=O)CN(C[C@]2(C)CCCO2)C(=O)c2cnn([C@H]3CC[C@](C)(C(=O)O)CC3)c2C(F)(F)F)c(Cl)c1 [Example 805, trans-4-(4-((2-(2-chloro-6-fluoro-4-methylphenyl)-2-oxoethyl)(((2S)-2-methyltetrahydro-2-furanyl)methyl)carbamoyl)-5-(trifluoromethyl)-1H-pyrazol-1-yl)-1-methylcyclohexanecarboxylic acid] | 11.2 |
| Cc1cc(F)c(C(=O)CN(CC2(C)CCC2)C(=O)c2cnn([C@H]3CC[C@](C)(C(=O)O)CC3)c2C(F)(F)F)c(Cl)c1 [Example 778, trans-4-(4-((2-(2-chloro-6-fluoro-4-methylphenyl)-2-oxoethyl)((1-methylcyclobutyl)methyl)carbamoyl)-5-(trifluoromethyl)-1H-pyrazol-1-yl)-1-methylcyclohexanecarboxylic acid] | 4.47 |
| COC(CN(CC(C)(C)C)C(=O)c1cnn([C@H]2CC[C@H](C(=O)O)CC2)c1C(F)(F)F)c1c(Cl)cc(C)cc1Cl (relative stereo) [Example 529, trans-4-(4-(((2R/S)-2-(2,6-dichloro-4-methylphenyl)-2-methoxyethyl)(2,2-dimethylpropyl)carbamoyl)-5-(trifluoromethyl)-1H-pyrazol-1-yl)cyclohexanecarboxylic acid] | 63.1 |
| C[C@H]1CC[C@H](CN(CC(=O)c2c(Cl)cncc2Cl)C(=O)c2cnn([C@H]3CC[C@](C)(C(=O)O)CC3)c2C(F)(F)F)O1 [Example 614, trans-4-(4-((2-(3,5-dichloro-4-pyridinyl)-2-oxoethyl)(((2R,5R)-5-methyltetrahydro-2-furanyl)methyl)carbamoyl)-5-(trifluoromethyl)-1H-pyrazol-1-yl)-1-methylcyclohexanecarboxylic acid] | 53.7 |

— patent US9365522B2, “Pyrazole amide derivative” (AMGEN INC., priority 2015, dated 2016)
